Data as given in publication PMC4710668, “Bioactivation of food genotoxicants 5-hydroxymethylfurfural and furfuryl alcohol by sulfotransferases from human, mouse and rat: a comparative study” (Archives of Toxicology, 2014).
Values joined by “and” are separate entries in the source; they are usually repeats but may differ in a detail not shown here. Equal values may be shown once. Marks after values point to notes of the source that are not given here.

Tests used:
Assay in all cases: FFA sulfoconjugation assay (N6-MF-A formation with adenosine as scavenger)
Format in all cases: biochemical
[1] = molecular target: T1, hSULT1E1 (Homo sapiens, UniProt P49888)
T1 construct: made in house; host or cells: Salmonella typhimurium TA1538 (cytosolic fraction, not purified)
T1 sequence (P49888 1-294): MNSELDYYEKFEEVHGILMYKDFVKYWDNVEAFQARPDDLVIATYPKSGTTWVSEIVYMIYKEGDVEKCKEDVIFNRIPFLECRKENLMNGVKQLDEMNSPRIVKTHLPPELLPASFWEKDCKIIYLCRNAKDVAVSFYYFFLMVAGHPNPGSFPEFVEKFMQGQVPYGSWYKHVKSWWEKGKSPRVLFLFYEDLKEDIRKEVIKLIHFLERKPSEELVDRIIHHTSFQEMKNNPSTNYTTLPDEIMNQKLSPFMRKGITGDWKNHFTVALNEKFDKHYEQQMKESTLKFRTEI
How it was run: (§1)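 Quadruplicate incubations of FFA with SULT-expressing TA1538 cytosol and 10 mM adenosine, 20 min at 37 °C. Quantitation of N6-MF-A by UPLC-MS/MS with summed MRM signals against [15N5]N6-MF-A. Values were corrected by subtracting duplicate SULT-deficient cytosol controls.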

[2] = molecular target: T2, hSULT2A1 (Homo sapiens, UniProt Q06520)
T2 construct: made in house; host or cells: Salmonella typhimurium TA1538 (cytosolic fraction, not purified)
T2 sequence (Q06520 1-285): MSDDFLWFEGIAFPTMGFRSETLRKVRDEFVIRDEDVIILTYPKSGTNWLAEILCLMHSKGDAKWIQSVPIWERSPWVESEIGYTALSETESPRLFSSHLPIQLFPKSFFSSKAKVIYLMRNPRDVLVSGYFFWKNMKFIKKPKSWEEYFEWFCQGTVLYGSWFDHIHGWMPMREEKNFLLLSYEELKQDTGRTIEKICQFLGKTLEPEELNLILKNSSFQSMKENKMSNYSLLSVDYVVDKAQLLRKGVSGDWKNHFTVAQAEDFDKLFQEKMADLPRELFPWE
How it was run: as §1

[3] = molecular target: T3, hSULT1A3 (Homo sapiens, UniProt P0DMM9)
T3 construct: made in house; host or cells: Salmonella typhimurium TA1538 (cytosolic fraction, not purified)
T3 sequence (P0DMM9 whole entry): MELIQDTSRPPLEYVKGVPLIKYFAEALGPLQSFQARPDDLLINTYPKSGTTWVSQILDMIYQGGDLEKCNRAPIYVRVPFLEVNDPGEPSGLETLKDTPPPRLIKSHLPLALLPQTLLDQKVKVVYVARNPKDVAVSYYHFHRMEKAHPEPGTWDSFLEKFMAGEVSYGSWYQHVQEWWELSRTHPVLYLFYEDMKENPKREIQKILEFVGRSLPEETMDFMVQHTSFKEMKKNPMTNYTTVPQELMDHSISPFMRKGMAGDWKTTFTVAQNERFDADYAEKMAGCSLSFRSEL
How it was run: as §1

[4] = molecular target: T4, hSULT1B1 (Homo sapiens, UniProt O43704)
T4 construct: made in house; host or cells: Salmonella typhimurium TA1538 (cytosolic fraction, not purified)
T4 sequence (O43704 whole entry): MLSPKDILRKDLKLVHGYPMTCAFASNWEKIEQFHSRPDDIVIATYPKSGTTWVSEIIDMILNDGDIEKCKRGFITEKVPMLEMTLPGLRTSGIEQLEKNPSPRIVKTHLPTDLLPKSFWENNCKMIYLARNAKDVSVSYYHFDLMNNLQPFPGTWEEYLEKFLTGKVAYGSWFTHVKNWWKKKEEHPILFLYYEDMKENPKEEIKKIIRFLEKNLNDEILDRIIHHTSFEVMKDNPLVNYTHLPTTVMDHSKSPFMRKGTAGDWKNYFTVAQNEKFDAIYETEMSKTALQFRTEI
How it was run: as §1

[5] = molecular target: T5, mSult1a1 (Mus musculus, UniProt P52840)
T5 construct: made in house; host or cells: Salmonella typhimurium TA1538 (cytosolic fraction, enzyme not purified)
T5 sequence (P52840 whole entry): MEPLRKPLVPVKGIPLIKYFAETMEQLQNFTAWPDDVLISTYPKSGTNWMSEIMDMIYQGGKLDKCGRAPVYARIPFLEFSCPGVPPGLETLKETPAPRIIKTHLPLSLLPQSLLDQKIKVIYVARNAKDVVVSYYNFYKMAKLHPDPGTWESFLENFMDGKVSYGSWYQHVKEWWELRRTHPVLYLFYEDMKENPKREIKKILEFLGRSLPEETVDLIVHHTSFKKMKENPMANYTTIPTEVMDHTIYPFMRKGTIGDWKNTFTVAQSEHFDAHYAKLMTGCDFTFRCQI
How it was run: as §1

[6] = 1 mM FFA, corrected by actual SULT concentration in the cytosolic preparation

OCc1ccco1 [FFA, furfuryl alcohol]
Rate of N6-MF-A formation ([1]; 0.1 mM FFA): <18 fmol N ^6-MF-A/mg/min
Rate of N6-MF-A formation ([1]; 1 mM FFA): <20 fmol N ^6-MF-A/mg/min
Rate of N6-MF-A formation ([1]; 10 mM FFA): 47.0 ± 0.9 fmol N ^6-MF-A/mg/min
Rate of N6-MF-A formation ([2]; 0.1 mM FFA): <18 fmol N ^6-MF-A/mg/min
Rate of N6-MF-A formation ([2]; 1 mM FFA): 37.0 ± 0.6 fmol N ^6-MF-A/mg/min
Rate of N6-MF-A formation (corr.) ([2]; 1 mM FFA, corrected by SULT concentration reported in Meinl et al. [2006]): 2,110 ± 40^b fmol N ^6-MF-A/mg/min
Rate of N6-MF-A formation ([2]; 10 mM FFA): 386 ± 6 fmol N ^6-MF-A/mg/min
Rate of N6-MF-A formation ([3]; 1 mM FFA): 27.3 ± 0.5 fmol N ^6-MF-A/mg/min
Rate of N6-MF-A formation (corr.) [3, 6]: 1,950 ± 30 fmol N ^6-MF-A/mg/min
Rate of N6-MF-A formation ([3]; 10 mM FFA): 226 ± 3 fmol N ^6-MF-A/mg/min
Rate of N6-MF-A formation ([4]; 0.1 mM FFA): 23.3 ± 0.3 fmol N ^6-MF-A/mg/min
Rate of N6-MF-A formation ([4]; 1 mM FFA): 211 ± 2 fmol N ^6-MF-A/mg/min
Rate of N6-MF-A formation (corr.) [4, 6]: 5,010 ± 50 fmol N ^6-MF-A/mg/min
Rate of N6-MF-A formation ([4]; 10 mM FFA): 1,070 ± 20 fmol N ^6-MF-A/mg/min
Rate of N6-MF-A formation ([5]; 0.1 mM FFA): 361 ± 4 fmol N ^6-MF-A/mg/min
Rate of N6-MF-A formation ([5]; 1 mM FFA): 2,590 ± 20 fmol N ^6-MF-A/mg/min
Rate of N6-MF-A formation (corr.) [5, 6]: 61,700 fmol N ^6-MF-A/mg/min and 61,700 ± 400 fmol N ^6-MF-A/mg/min
ratio of N6-MF-A formation rate, mSult1a1 vs mSult1d1 ([5]; 1 mM FFA, corrected rates): about 14 fold
Rate of N6-MF-A formation ([5]; 10 mM FFA): 5,140 ± 60 fmol N ^6-MF-A/mg/min
